US7829552B2, “Phosphorus-containing thyromimetics” (Metabasis Therapeutics, Inc., priority 2003, dated 2010)

Assays:
[1] = system: Hypercholesterolemic rats; test: Cholesterol lowering in hypercholesterolemic (cholesterol-fed) rats; type: in vivo, rat; conditions: for cholesterol lowering: hypercholesterolemic rats, 0.5 mg/kg/d orally; for efficacy in lowering cholesterol: another experiment, dose and route not given
Protocol: Plasma cholesterol values were assessed prior to and following treatment and the effects of compound were expressed as a percentage change from the pre-dose cholesterol levels. […] Compounds were routinely tested for oral efficacy at a dose of 0.5 mg/kg/d. Hypercholesterolemic rats were treated with vehicle, Compound 13-1-cis (a HepDirect version of Compound 7), Compound 19-1 (a diethyl ester of Compound 19-2), Compound 13-9 (a HepDirect version of Compound 19-2), Compound 12-5 (a bisPom version of compound 19-2), or Compound 15-5 (a bisamidate version of Compound 19-2) at 0.5 mg/kg/d orally. Compound 13-1-cis has been extensively characterized and was used as the positive control for the assay.

[2] = molecular target: T1, human thyroid hormone receptors TRβ1 (Homo sapiens, UniProt P10828); test: Receptor binding, scintillation proximity assay (SPA) with labeled T3; T3 binding also by gel filtration; conditions: SPA data; read-out: Ki TRβ
T1 construct: made in house; host or cells: Sf9 insect cells (baculovirus co-infection of TR and RXRα), cell lysate
T1 sequence (P10828 1-461): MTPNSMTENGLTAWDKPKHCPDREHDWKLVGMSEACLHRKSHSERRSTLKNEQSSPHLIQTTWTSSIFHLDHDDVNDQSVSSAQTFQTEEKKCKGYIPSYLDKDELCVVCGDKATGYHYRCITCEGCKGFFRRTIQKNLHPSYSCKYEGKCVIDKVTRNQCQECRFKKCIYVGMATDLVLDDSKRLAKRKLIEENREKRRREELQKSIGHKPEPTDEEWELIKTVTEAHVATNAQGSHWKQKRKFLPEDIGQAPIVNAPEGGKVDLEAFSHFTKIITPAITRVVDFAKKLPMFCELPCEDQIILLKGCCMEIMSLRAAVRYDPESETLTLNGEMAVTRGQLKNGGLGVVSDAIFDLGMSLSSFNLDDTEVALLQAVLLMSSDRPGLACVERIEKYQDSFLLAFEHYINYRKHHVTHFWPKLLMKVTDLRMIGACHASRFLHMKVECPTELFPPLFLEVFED
T1 sequence (P19793 1-462 partner): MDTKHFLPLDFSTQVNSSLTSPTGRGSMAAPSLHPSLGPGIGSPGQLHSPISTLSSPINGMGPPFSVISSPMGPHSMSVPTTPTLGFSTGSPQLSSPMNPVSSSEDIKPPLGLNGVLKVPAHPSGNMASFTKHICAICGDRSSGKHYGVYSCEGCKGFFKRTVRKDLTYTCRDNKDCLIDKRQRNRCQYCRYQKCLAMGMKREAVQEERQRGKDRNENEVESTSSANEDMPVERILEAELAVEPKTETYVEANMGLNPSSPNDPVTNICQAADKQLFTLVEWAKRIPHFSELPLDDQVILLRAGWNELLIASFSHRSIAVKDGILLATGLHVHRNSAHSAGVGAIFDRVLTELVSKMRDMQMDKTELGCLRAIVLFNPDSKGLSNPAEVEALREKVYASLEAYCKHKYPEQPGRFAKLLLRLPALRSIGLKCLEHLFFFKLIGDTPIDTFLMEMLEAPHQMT
Protocol: (§1) Methods: Baculoviruses expressing TRα1, TRβ1 and RXRα were generated using cDNA and other reagents from Invitrogen (Carlsbad, Calif.). To produce TR/RXR heterodimer proteins, the sf9 insect cells were first grown to a density of 1−5×10^5 cells/mL. TRα1 or TRβ1 and RXRα baculovirus stocks were added to the cell culture with a ratio of 1 to 1 (multiplicity of infection=10). The cells were harvested three days after the infection.
(§2) Binding of compounds to either the TRα1 or TRβ1 were also performed by means of scintillation proximity assays (SPA). The SPA assay, a common method used for the quantitation of receptor-ligand equilibria, makes use of special beads coated with a scintillant and a capture molecule, copper, which binds to the histidine-tagged α or β receptor.

[3] = molecular target: T2, human thyroid hormone receptors TRα1 (Homo sapiens, UniProt P10827); test: as above; conditions: SPA data; read-out: Ki TRα
T2 construct: made in house; host or cells: Sf9 insect cells (baculovirus co-infection of TR and RXRα), cell lysate
T2 sequence (P10827 1-410 isoform P10827-2): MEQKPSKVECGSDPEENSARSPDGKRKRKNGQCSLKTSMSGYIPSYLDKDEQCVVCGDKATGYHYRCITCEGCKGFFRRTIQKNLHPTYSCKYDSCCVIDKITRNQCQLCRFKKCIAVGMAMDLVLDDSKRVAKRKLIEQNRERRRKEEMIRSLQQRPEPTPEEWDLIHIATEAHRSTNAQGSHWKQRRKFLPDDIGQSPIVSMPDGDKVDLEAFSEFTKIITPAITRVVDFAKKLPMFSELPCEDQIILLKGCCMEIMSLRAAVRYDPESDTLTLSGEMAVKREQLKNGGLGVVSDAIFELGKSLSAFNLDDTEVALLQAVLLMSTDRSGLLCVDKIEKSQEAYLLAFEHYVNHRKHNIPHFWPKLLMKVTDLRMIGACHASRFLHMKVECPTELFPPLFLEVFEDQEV
T2 sequence (P19793 1-462 partner): T1 sequence (P19793 1-462 partner)
Protocol: as §1, §2

Sprague Dawley (SD) rat = test: Cardiovascular activity of T3 mimetics in the Sprague Dawley rat, oral 7 days; type: in vivo; conditions: SD rats, p.o. 7 days, Compound 18 1 mg/kg, Compound cis-13-1 1-50 mg/kg/day
Source text: Method: […] The control group (n=6) was given vehicle only. […] On the 7th day after the start of dosing, animals were anesthetized with Isoflurane and the left ventricle cannulated with a high fidelity catheter tip transducer via the right carotid artery. Left ventricular pressure, its first derivative (LVdP/dt), lead I ECG, and heart rate (HR) triggered off the ECG waveform, were digitally recorded. LV dP/dt is a well accepted measure of ionotropic state. Systolic and diastolic aortic pressures were measured by retracting the catheter into the proximal aorta.

[4] = animals, e.g., rodent models and monkeys; cited from earlier work
cholesterol-fed rat [5] = conditions: cited from earlier work
Normal rats = test: Hepatic triglyceride content in normal rats chronically infused for 7 days; type: in vivo, rat
Protocol: Normal rats were chronically infused with Compound 7 for 7 days. Liver triglycerides were analyzed following lipid extraction by the Bligh Dyer method (Bligh E G and Dyer W J, A rapid method of total lipid extraction and purification. Can J Med. Sci. 1959 (August); 37(8):911-7, incorporated herein by reference). Total triglycerides were analyzed in the liver extracts by an enzymatic assay (Thermo Electron Corporation). Total lipid was normalized to initial liver weight and triglyceride content was normalized to liver weight. […] There was a 4% reduction in liver triglycerides for this group and the results were not statistically significant.

[6] = system: Normal rats (Sprague-Dawley); test: Subacute studies in normal rats, continuous infusion by osmotic pump: liver/heart mGPDH activity, heart weight; type: in vivo, rat; conditions: continuous infusion 1 mg/kg/day
Source text: Efficacy endpoints include serum cholesterol, liver mitochondrial glycerol phosphate dehydrogenase (mGPDH) activity and the expression of relevant liver genes (e.g., the LDL-receptor, apoB, cpt-1, spot14 and apoAI). Safety parameters include heart weight, heart rate, heart mGPDH activity, the expression and key genes involved in cardiac structure and function (e.g., Serca2, HCN2, Kv1.5, MHCα, MHCβ, Alpha1c), and standard plasma chemistry analysis (liver enzymes, electrolytes, creatinine). Endocrine effects are monitored by analysis of serum thyroid stimulating hormone (TSH). [Taylor et al., Mol Pharmacol 52(3): 542-7 (1997); Weitzel et al., Eur Biochem 268(14):4095-4103 (2001)]
Methods: mGPDH activity was analyzed in isolated mitochondria using 2-(4-iodophenyl)-3-(4-nitrophenyl)-5-phenyl tetrazolium chloride as the terminal electron acceptor (Gardner R S, Analytical Biochemistry 59:272 (1974)). Commercially available GPDH was used in each assay as a standard (Sigma, St. Louis, Mo.). Changes in levels of mRNA for liver and heart genes are analyzed using reverse transcriptase followed by real-time PCR analysis. The analysis is performed using an iCycler instrument (Biorad) and appropriate primers by means of standard methodology [e.g., Schwab D A et al. (2000) Life Sciences 66: 1683-94]. The amounts of mRNA are normalized to an internal control, typically, cyclophilin. Serum TSH is measured using an enzyme immunoassay (EIA) kit designed for rat TSH (Amersham Pharmacia Biotech, Arlington Heights, Ill.).
Normal rats (Sprague-Dawley) were maintained on a standard diet. […] The compounds were brought up to an appropriate volume using PBS and BSA to maintain solubility within the pump. The compounds were chemically stable in the excipient at 37° C. for 7 days.
Values are expressed as percent of control. (Table 4)

cholesterol-fed rat [7] = test: Subacute studies in cholesterol-fed rats, IP once-a-day for seven days: serum cholesterol, heart weight, heart GPDH
Protocol: The cholesterol-fed rat is an animal model of hypercholesterolemia generated by feeding the animals a diet with high cholesterol content.
Serum cholesterol values were assessed and the animals randomized into groups for treatment.

CCOP(=O)(Cc1cc(Br)c(Oc2ccc(O)c(C(C)C)c2)c(Br)c1)OCC [Compound 19-1]
change in vivo at 0.5 mg/kg/day ([1]; Rattus norvegicus, po, read-out: % Cholesterol Lowering): -6.56%

CC(C)c1cc(Oc2c(Br)cc(CP(=O)(OCOC(=O)C(C)(C)C)OCOC(=O)C(C)(C)C)cc2Br)ccc1O [Compound 12-5, Di-(pivaloyloxymethyl)[3,5-dibromo-4-(4′-hydroxy-3′-iso-propylphenoxy)benzyl]phosphonate]
cholesterol lowering [1]: significant lowering of cholesterol

Cc1cc(OC[P@@]2(=O)OCC[C@@H](c3cccc(Br)c3)O2)cc(C)c1Cc1ccc(O)c(C(C)C)c1 [Compound 13-2-cis, 2-[(3,5-dimethyl-4-(4′-hydroxy-3′-iso-propylbenzyl)phenoxy)methyl]-4-(3-bromophenyl)-2-oxo-2λ^5-[1,3,2]-dioxaphosphonane]
efficacy in lowering cholesterol [1]: not efficiacous

Cc1cc(CCP(=O)(O)O)cc(C)c1Cc1ccc(F)c(C(C)C)c1 [Compound 42-2]
Ki [2]: > 2000 nM
Ki [3]: > 2000 nM

CC(C)c1cc(Oc2c(Cl)cc(CC(=O)O)cc2Cl)ccc1O [Compound 18, 3,5-dichloro-4-[4′-hydroxy-3′-iso-propylphenoxy]benzeneacetic Acid, reference compound]
Heart weight (Sprague Dawley (SD) rat; vs control): significantly increased
heart weight normalized to body weight (Sprague Dawley (SD) rat; vs control): significantly increased
HR (Sprague Dawley (SD) rat; vs vehicle): marked and statistically significant increases
LV dP/dt (Sprague Dawley (SD) rat; vs vehicle): marked and statistically significant increases
systolic aortic pressure (Sprague Dawley (SD) rat; vs vehicle): marked and statistically significant increases
weight loss [4]: result in weight loss in animals
therapeutic index (TI) with respect to heart rate increases (cholesterol-fed rat [5]): 40

CC(C)c1cc(Oc2c(Cl)c(F)nc(NCP(=O)(OCOC(=O)C(C)(C)C)OCOC(=O)C(C)(C)C)c2Cl)ccc1O [Compound 12-9]
efficacy in lowering cholesterol [1]: not efficiacous

N[C@@H](Cc1cc(I)c(Oc2ccc(O)c(I)c2)c(I)c1)C(=O)O [Compound T3, triiodothyronine]
decrease in hepatic triglyceride content (Normal rats): 4%
Heart GPDH [6]: 284% of control
Heart weight [6]: 146% of control
Liver GPDH [6]: 406% of control

CCOC(=O)[C@H](C)NP(=O)(Cc1cc(Br)c(Oc2ccc(O)c(C(C)C)c2)c(Br)c1)N[C@@H](C)C(=O)OCC [Compound 15-5, Di-N-(L-1-ethoxycarbonylethylamino)[3,5-dibromo-4-(4′-hydroxy-3′-iso-propylphenoxy)benzyl]phosphonamide]
cholesterol lowering [1]: significant lowering of cholesterol

Cc1cc(OCC(=O)O)cc(C)c1Cc1ccc(O)c(C(C)C)c1 [Compound 17, [3,5-dimethyl-4-(4′-hydroxy-3′-iso-propylbenzyl)phenoxy]acetic Acid]
serum cholesterol (cholesterol-fed rat [7]; 0.1-1 mg/kg/day, IP once-a-day for seven days): significantly decreased serum cholesterol
therapeutic window (separation between cholesterol lowering and cardiac toxicity) (cholesterol-fed rat [7]; cholesterol-fed rats): no separation between efficacy (cholesterol lowering) and toxicity
cardiac hypertrophy (cholesterol-fed rat [7]; cholesterol-fed rats, IP seven days, Compound 17 0.1-1 mg/kg/day, Compound 7 all doses): Undesirable cardiac hypertrophy was observed
